# According to PMC10925992 (Heliyon, 2024):
# Where a name gives a salt, the structure may show the parent alone.
# Legend:
# [1] = target: catalytic domain of USP7 (USP7-CD) (Homo sapiens, UniProt Q93009); experiment: STD-NMR titration for dissociation constant; assay type: binding
# USP7-CD = USP7-CD (Homo sapiens, UniProt Q93009); experiment: Thermal shift assay; conditions: decrease of Tm of USP7-CD, USP7 10 μM, ligand 1 mM
# [2] = test system: USP7, MDM2 and c-Myc mRNA in HCT-116 cells; experiment: Quantitative gene expression analysis; assay type: cell-based, human; conditions: HCT116, compound at IC50 concentration, 48 h, versus untreated cells
# [3] = test system: p53 mRNA in HCT-116 cells; experiment: Quantitative gene expression analysis; assay type: cell-based, human; conditions: HCT116, compound at IC50 concentration, 48 h, versus untreated cells
# HCT116 cells = experiment: MTT anti-proliferation assay; assay type: cell-based, human; conditions: for IC50: Homo sapiens, HCT-116, 48 h; for inhibition of proliferation of cancerous cells: HCT116, MTT, 48 h
# USP7 = conditions: read-out: IC50 of USP7 inhibition; no reference given; cited from earlier work
# Sequence of catalytic domain of USP7 (USP7-CD) (Q93009 208-560): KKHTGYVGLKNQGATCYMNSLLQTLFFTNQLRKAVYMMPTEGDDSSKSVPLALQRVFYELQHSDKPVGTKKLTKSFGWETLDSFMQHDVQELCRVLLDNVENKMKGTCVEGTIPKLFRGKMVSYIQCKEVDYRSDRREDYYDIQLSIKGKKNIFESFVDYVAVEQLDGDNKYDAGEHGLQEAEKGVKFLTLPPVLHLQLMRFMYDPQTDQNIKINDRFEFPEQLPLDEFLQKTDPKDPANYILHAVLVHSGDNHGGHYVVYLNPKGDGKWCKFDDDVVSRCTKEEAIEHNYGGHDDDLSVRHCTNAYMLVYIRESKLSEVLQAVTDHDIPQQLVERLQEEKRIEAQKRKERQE
# Sequence of USP7-CD (Q93009 208-560): as above
Structure (SMILES),Kd [1],"mRNA expression of proto-oncogenes (USP7, MDM2, c-Myc) [2]",also measured
"CN1CCC(=C2c3ccccc3CC(=O)c3sccc32)CC1 [Compound 7, Ketotifen]",1100 ± 880 µM,significantly decreased,mRNA expression of tumor suppressor gene (p53) [3]: non-significantly; IC50 (HCT116 cells): 89 ± 1.55 µM
"Clc1ccccc1CN1CCc2sccc2C1 [Compound 8, Ticlopidine Hydrochloride]",1490 ± 1410 µM,,inhibition of proliferation of cancerous cells (HCT116 cells): inactive
"Nc1nnc(-c2cccc(Cl)c2Cl)c(N)n1 [Compound 9, Lamotrigine]",1000 ± 560 µM,,inhibition of proliferation of cancerous cells (HCT116 cells): inactive
"CN(C)CCC[C@@]1(c2ccc(F)cc2)OCc2cc(C#N)ccc21 [Compound 11, Escitalopram]",1220 ± 1120 µM,significantly decreased,mRNA expression of tumor suppressor gene (p53) [3]: non-significantly; IC50 (HCT116 cells): 227.6 ± 0.71 µM
N#Cc1nc2c(nc1C#N)-c1ccc(Cl)cc1C2=O [HBX 41108],,,Thermal Shift (Δtm) (USP7-CD; listed as 12): 6.20 °C; IC50 (USP7): 0.424 µM

# Second part, led by results:
Kd [1],Structure (SMILES),"mRNA expression of proto-oncogenes (USP7, MDM2, c-Myc) [2]",also measured
780 ± 530 µM,"Nc1c(CC(=O)O)cccc1C(=O)c1ccc(Br)cc1 [Compound 1, Bromfenac Sodium]",,
760 ± 560 µM,"O=C(O)Cc1ccccc1Nc1c(Cl)cccc1Cl [Compound 2, Diclofenac Sodium]",,Thermal Shift (Δtm) (USP7-CD): 2.40 °C
620 ± 560 µM,"CC(C(=O)O)c1cccc(C(=O)c2ccccc2)c1 (stereo not shown) [Compound 3, Ketoprofen]",,
910 ± 700 µM,"CC(CCc1ccccc1)NCC(O)c1ccc(O)c(C(N)=O)c1 (stereo not shown) [Compound 4, Labetalol Hydrochloride]",,Thermal Shift (Δtm) (USP7-CD): 3.95 °C
660 ± 460 µM,"CCN(CC)CC#CCOC(=O)C(O)(c1ccccc1)C1CCCCC1 (stereo not shown) [Compound 6, Oxybutynin HCl]",significantly decreased,
870 ± 280 µM,"COc1ccnc(C[S+]([O-])c2nc3ccc(OC(F)F)cc3[nH]2)c1OC (stereo not shown) [Compound 10, Pantoprazole Sodium]",significantly decreased,IC50 (HCT116 cells): 222 ± 0.29 µM
